Assay results as given in patent US20080113938A1, “ACCELERATOR FOR MINERAL ABSORPTION AND USE THEREOF” (KABUSHIKI KAISHA HAYASHIBARA SEIBUTSU KAGAKU KENKYUJO, priority 2003, published 2008).

Tests used:
[1] = Remaining cyclic tetrasaccharide in contents of alimentary canal and excrement of rats; assay type: in vivo, Wister rats; conditions: for Remaining percentage of cyclic tetrasaccharide in content of appendix / Remaining percentage of cyclic tetrasaccharide in content of intestinum ileum / Remaining percentage of cyclic tetrasaccharide in excrement: relative to chromium marker
Description: Forty of Wister rats weighing 110 to 120 g (five-weeks aged male, commercialized by Charles River Japan Inc., Yokohama, Japan) were bred with a feed containing ingredients (%) shown in Table 1 for one week in order to be familiarized. The familiarized rats were randomly divided into four groups with ten rats each. Each group was experimentally bred for eight weeks with either a feed without cyclic tetrasaccharide shown in Table 1 (hereinafter, it is called as “basic feed”), or another feed of basic feed supplemented with 1%, 2% or 5% on a dry solid basis, of cyclic tetrasaccharide in a crystalline anhydrous powder form with a purity of 99.5%, prepared in the following Example A-3. These basic feed and three kinds of feeds with cyclic tetrasaccharide were prepared to contain 44.75% of the total amount of cyclic tetrasaccharide and corn starch in each feed. From one week before the end of the breeding test, in order to determine the metabolism of calcium, magnesium, iron, sodium, potassium and phosphorus (hereinafter, may be called “minerals” in all), rats in the all groups were fed with the four types of feeds supplemented with 0.5% of chromium oxide as a non-absorbed marker for the minerals. The rats were bred at 25° C. in a manner of freely allowing to take feeds and water under a condition of 12 hours regular interval between of light and shade. After completion of experimental breeding, all rats were individually weighed to calculate the average of weight and further calculate the rate of increased weight for each group.
Two days before the end of the breeding test, rats were placed into a gauge for measuring metabolism to collect their excrement in two days. The resulting excrement was subjected to the measurement of the contents of cyclic tetrasaccharide, each mineral, and chromium. After the breeding test, the rats were anatomized in an anesthetized condition to take out their alimentary canals including jejunum, intestinum ileum, appendix and colon/rectum. After the resulting alimentary canals were weighed, their contents were also weighed and subjected to the measurement of the amount of cyclic tetrasaccharide, minerals and chromium. The rats, which had been taken out their alimentary canals, were dislocated at their cervical vertebrae and taken out their femurs from right legs. The resulting femurs were subjected to the measurement of the amount of ashes, calcium, magnesium and phosphorus. The following(s) explain the methods of quantitative analysis of cyclic tetrasaccharide and the methods of measurement of minerals and chromium.
One gram of a feed was admixed with 5 ml of 80% ethanol heated at 85° C. under reflux for 15 minutes to extract saccharides. The resulting saccharide sample was subjected to TMS derivatization in a usual manner. Three microliters of the sample was applied to a gas chromatography (“GC-16™”, commercialized by Shimazu Corporation, Kyoto, Japan) equipped with OV-17 packed column (“2% Silicone, OV-17 Chromosorb W/AW DMSC 80-100 mesh, 3 mmID×2 m, SUS”, produced by GL Science Corporation). The inner column temperature was kept at 160° C. for two minutes, and heated up to 320° C. at a rate of 7.5° C./min. The amount of cyclic tetrasaccharide was quantified by using nitrogen gas as a carrier (35 ml/min). While, in order to quantify the amounts of the contents of jejunum, intestinum ileum, appendix, colon/rectum and excrement, 0.05 g of each sample was weighed in a micro tube for gas chromatography and dried in a desiccator with phosphorus pentoxide. The resulting samples were subjected to TMS derivatization in a usual manner and quantified by gas chromatography.
The remaining percentages (%) were calculated using the following numerical formula, based on the rate of the amount of cyclic tetrasaccharide to chromium in each feed and the rate of those in the contents or excrement in consideration of that chromium is never absorbed by living bodies; […]

[2] = tested on: reversed canal sac of intestinum ileum; test: Calcium absorption in reversed canal sac, intestinum ileum; assay type: cell-based, Wister rats
Protocol: Experiment 1 confirmed that cyclic tetrasaccharide promotes mineral absorption in alimentary canal of rat concretely in intestinum ileum or its upper alimentary canal. The following experiment was carried out in order to determine a part of alimentary canal, cyclic tetrasaccharide acts on to promote mineral absorption. Twenty heads of Wister rats (nine week aged male, commercialized by Charlesriver Corporation, Kanagawa, Japan) were bred for three days with a usual solid feed for rats. Under the anesthetization with ether, alimentary canal was taken out from each rat which had been bled from a jugular vein and treated by abdominal operation. Each alimentary canal was divided into jejunum, intestinum ileum and colon/rectum and washed with physiological saline to remove the content. The resulting jejunum specimen, intestinum ileum specimen or colon/rectum specimen was cut off to prepare each midsection sized with about 10 cm in length. The resulting midsection of each specimen was reversed using a glass rod and immersed in a physiological saline babbled with gas consisting of 95% oxygen and 5% carbon dioxide. The resultant was cut into pieces sized with 5 cm in length and each piece was tied with a suture thread at both ends to prepare a reversed canal sac, and injected with about 0.5 ml of an internal sac solution containing 30 mM Tris-HCl buffer (pH7.4), 125 mM sodium chloride, 4 mM potassium chloride, 10 mM glucose and 1.25 mM calcium chloride (dihydrate) with a syringe and weighed. The resulting sac was immersed in an external sac solution (being bubbled with the gas consisting of 95% oxygen and 5% carbon dioxide) containing 50 mM, 100 mM or 200 mM of the same cyclic tetrasaccharide to Experiment 1 in the above solution containing 30 mM Tris-HCl buffer (pH7.4), 125 mM sodium chloride, 4 mM potassium chloride, 10 mM glucose and 1.25 mM calcium chloride (dihydrate). At 15 or 30 minutes after the immersion, the reversed canal sac was taken out from the solution and washed with distilled water. The internal sac solution was collected from the resulting sac and admixed with distilled water to give a final volume of 25 ml. The resulting solution was subjected to a calorimetric measurement of calcium content using “CALCIUM TEST C WAKO™” (commercialized by Wako Pure Chemicals Corporation, Osaka, Japan). As a negative control, an external sac solution without saccharides. As a positive control, an external sac solution containing 200 mM maltitol, reported to have the effect on promoting mineral absorption though intestinal canal, instead of cyclic tetrasaccharide were prepared and carried out in the same manner. Speed of calcium absorption (nmol/min·cm^2) and its relative values defining the value of negative control as 100 were calculated.

[3] = 1% cyclic tetrasaccharide in feed
[4] = 2% cyclic tetrasaccharide in feed
[5] = 5% cyclic tetrasaccharide in feed
[6] = feed supplemented with 1%, 2% or 5% of cyclic tetrasaccharide
[7] = 50 mM saccharide in external sac solution
[8] = 100 mM saccharide in external sac solution
[9] = 200 mM saccharide in external sac solution

OC[C@H]1O[C@@H]2OC[C@H]3O[C@H](O[C@@H]4[C@@H](O)[C@@H](OC[C@H]5O[C@H](O[C@H]([C@H]2O)[C@@H]1O)[C@H](O)[C@@H](O)[C@@H]5O)O[C@H](CO)[C@H]4O)[C@H](O)[C@@H](O)[C@@H]3O [cyclic tetrasaccharide, cyclo{>6)-α-D-glucopyranosyl-(1>3)-α-D-glucopyranosyl-(1>6)-α-D-glucopyranosyl-(1>3)-α-D-glucopyranosyl-(1>}]
Amount of cyclic tetrasaccharide in content of appendix [1, 3]: 0.0 mg/g | Amount of cyclic tetrasaccharide in content of intestinum ileum [1, 3]: 60.5 mg/g | Amount of cyclic tetrasaccharide in excrement [1, 3]: 0.0 mg/g | Remaining percentage of cyclic tetrasaccharide in content of appendix [1, 3]: 0% | Remaining percentage of cyclic tetrasaccharide in content of intestinum ileum [1, 3]: 95% | Remaining percentage of cyclic tetrasaccharide in excrement [1, 3]: 0% | Amount of cyclic tetrasaccharide in content of appendix [1, 4]: 0.0 mg/g | Amount of cyclic tetrasaccharide in content of intestinum ileum [1, 4]: 184.1 mg/g | Amount of cyclic tetrasaccharide in excrement [1, 4]: 0.0 mg/g | Remaining percentage of cyclic tetrasaccharide in content of appendix [1, 4]: 0% | Remaining percentage of cyclic tetrasaccharide in content of intestinum ileum [1, 4]: 95% | Remaining percentage of cyclic tetrasaccharide in excrement [1, 4]: 0% | Amount of cyclic tetrasaccharide in content of appendix [1, 5]: 0.0 mg/g | Amount of cyclic tetrasaccharide in content of intestinum ileum [1, 5]: 298.0 mg/g | Amount of cyclic tetrasaccharide in excrement [1, 5]: 0.0 mg/g | Remaining percentage of cyclic tetrasaccharide in content of appendix [1, 5]: 0% | Remaining percentage of cyclic tetrasaccharide in content of intestinum ileum [1, 5]: 90% | Remaining percentage of cyclic tetrasaccharide in excrement [1, 5]: 0% | cyclic tetrasaccharide in the appendix and excrement [1, 6]: not detected at all | cyclic tetrasaccharide remained up to intestinum ileum without digestion [1, 6]: at least 90% | Absorption speed of calcium in alimentary canal sac, Intestinum ileum [2, 7]: 33.6 *※ nmol/min · cm^2 | Relative value of calcium absorption speed (control = 100), Intestinum ileum [2, 7]: (124) | Absorption speed of calcium in alimentary canal sac, Intestinum ileum [2, 8]: 46.0 *※ nmol/min · cm^2 | Relative value of calcium absorption speed (control = 100), Intestinum ileum [2, 8]: (167) | Absorption speed of calcium in alimentary canal sac, Intestinum ileum [2, 9]: 52.9 *※ nmol/min · cm^2 | Relative value of calcium absorption speed (control = 100), Intestinum ileum [2, 9]: (195) | promotion of calcium absorption in intestinum ileum ([2]; reversed sac): strongly promoted
